“Also recorded” adds a separate entry of the source.

In data set [1] the test system is DSS-induced colitis model mice. As to the kind of experiment: DSS-induced colitis model mice (body weight, disease score, survival, colon length, histology). It is filed as in vivo, Male C57BL/6J Jms Slc mice. The method, then: Male C57BL/6J Jms Slc mice (8-week old) were fed with 4% dextran sulfate sodium (DSS) in water in place of drinking water for 9 days, followed by feeding drinking water for 3 days, inducing colitis in the mice. Mice were divided into three groups: (1) CRP40 group administered orally with CHP monohydrate (40 mg/kg body weight/day); (2) CycloZ40 group administered orally with a combination of CHP monohydrate 40 mg/kg+Zn gluconate 70 mg/kg; and (3) vehicle (control) group fed with drinking water. CHP hydrate and combination of CHP hydrate+Zn gluconate were administered to the animals starting from 3 days prior to the DSS administration and continued for 12 days until the animals were sacrificed. The above amount of the CHP monohydrate and the combination of CHP monohydrate and Zn gluconate were administered daily.
At day 12, the animals were sacrificed and their colon lengths were measured.
The intestinal tissues were fixed, paraffin-embedded, and stained with hematoxylin and eosin.
Histopathological evaluation of colon was scored according to the grading system listed below.

In data set [2] the test system is muscle tissues and intestinal segments. Particulars: cited from earlier work.
Data set [3] can be described thus: pKa of CHP hydrate material. It counts as physicochemical.

With `O=C1N[C@@H](Cc2cnc[nH]2)C(=O)N2CCC[C@@H]12` [CHP, Cyclo(-His-Pro)], the protection of intestine entry in data set [1] (CHP alone 40 mg/kg/day as monohydrate compared with combination of CHP 40 mg/kg/day and Zn 70 mg/kg as zinc gluconate) is listed as “greater protection of intestine”. Besides, the “zinc absorption and uptake” value in data set [2] was “enhanced zinc absorption and uptake”.
As for `O=C1N[C@@H](Cc2cnc[nH]2)C(=O)N2CCC[C@@H]12` [CRP40, CHP monohydrate], the histological scores entry in data set [1] (DSS-induced colitis mice, compared with control (vehicle) group) is reported as “histologically more resistant to intestinal inflammation”. The “histological examination of intestinal tissue (H&E)” value in data set [1] (DSS-induced colitis mice, epithelial lining, submucosa thickness, lymphatic infiltration, compared with vehicle group) was “protected from intestinal tissue damage”. The survival rate entry in data set [1] (DSS-induced colitis mice, experimental period of 14 days, CHP monohydrate 40 mg/kg/day, or plus Zn gluconate 70 mg/kg, about 70% of vehicle group died) is “survived until the end of the experiment”. The “weight loss (body weight changes)” value in data set [1] (DSS-induced colitis mice, oral daily CHP monohydrate 40 mg/kg/day, day 12, compared with CycloZ40 and vehicle groups) is on record as “the least”. Further, in data set [1] (DSS-induced colitis mice, oral daily CHP monohydrate 40 mg/kg/day, day 12, compared with CycloZ40 and vehicle groups, monohydrate), the “disease score (disease activity: weight loss, stool consistency, blood)” value is recorded as “greatly improved; also recorded: the lowest”. For the same compound, the colon length result in data set [1] (DSS-induced colitis mice, sacrificed at day 12, compared with vehicle and CycloZ40 groups) is given as “longest”. Besides, the pKa in data set [3] was approximately 6.4.

A word on the pKa: it is the negative logarithm of the acid dissociation constant. A lower pKa goes with a group that gives up its proton readily.
